In ChEMBL document CHEMBL4715697, “Synthesis and biological activity of benzamide DNA minor groove binders” (2016):

Key:
Format in all cases: functional
K562 = assay: Growth inhibition of human K562 cells assessed as cell growth at 0.01 uM incubated for 48 hrs by sulforhodamine B assay relative to control; conditions: read-out: Activity
HCT-15 = assay: Growth inhibition of human HCT-15 cells assessed as cell growth at 0.01 uM incubated for 48 hrs by sulforhodamine B assay relative to control; conditions: read-out: Activity
MDA-MB-435 = assay: Growth inhibition of human MDA-MB-435 cells assessed as cell growth at 0.01 uM incubated for 48 hrs by sulforhodamine B assay relative to control; conditions: read-out: Activity
OVCAR-3 = assay: Growth inhibition of human OVCAR-3 cells assessed as cell growth at 0.01 uM incubated for 48 hrs by sulforhodamine B assay relative to control; conditions: read-out: Activity
OVCAR-8 = assay: Growth inhibition of human OVCAR-8 cells assessed as cell growth at 0.01 uM incubated for 48 hrs by sulforhodamine B assay relative to control; conditions: read-out: Activity
SK-OV-3 [1] = assay: Growth inhibition of human SK-OV-3 cells assessed as cell growth at 0.01 uM incubated for 48 hrs by sulforhodamine B assay relative to control; conditions: read-out: Activity
PC-3 [2] = assay: Growth inhibition of human PC-3 cells assessed as cell growth at 0.01 uM incubated for 48 hrs by sulforhodamine B assay relative to control; conditions: read-out: Activity
T47D = assay: Growth inhibition of human T47D cells assessed as cell growth at 0.01 uM incubated for 48 hrs by sulforhodamine B assay relative to control; conditions: read-out: Activity
HL-60(TB) = assay: Growth inhibition of human HL-60(TB) cells assessed as cell growth at 0.1 uM incubated for 48 hrs by sulforhodamine B assay relative to control; conditions: read-out: Activity
RPMI-8226 = assay: Growth inhibition of human RPMI-8226 cells assessed as cell growth at 0.1 uM incubated for 48 hrs by sulforhodamine B assay relative to control; conditions: read-out: Activity
EKVX = assay: Growth inhibition of human EKVX cells assessed as cell growth at 0.1 uM incubated for 48 hrs by sulforhodamine B assay relative to control; conditions: read-out: Activity
HOP-62 = assay: Growth inhibition of human HOP-62 cells assessed as cell growth at 0.1 uM incubated for 48 hrs by sulforhodamine B assay relative to control; conditions: read-out: Activity
NCI-H23 [3] = assay: Growth inhibition of human NCI-H23 cells assessed as cell growth at 0.1 uM incubated for 48 hrs by sulforhodamine B assay relative to control; conditions: read-out: Activity
SF-295 = assay: Growth inhibition of human SF-295 cells assessed as cell growth at 0.1 uM incubated for 48 hrs by sulforhodamine B assay relative to control; conditions: read-out: Activity
SK-MEL-2 = assay: Growth inhibition of human SK-MEL-2 cells assessed as cell growth at 0.1 uM incubated for 48 hrs by sulforhodamine B assay relative to control; conditions: read-out: Activity
IGROV-1 = assay: Growth inhibition of human IGROV-1 cells assessed as cell growth at 0.1 uM incubated for 48 hrs by sulforhodamine B assay relative to control; conditions: read-out: Activity
SK-OV-3 [4] = assay: Growth inhibition of human SK-OV-3 cells assessed as cell growth at 0.1 uM incubated for 48 hrs by sulforhodamine B assay relative to control; conditions: read-out: Activity
786-0 = assay: Growth inhibition of human 786-0 cells assessed as cell growth at 0.1 uM incubated for 48 hrs by sulforhodamine B assay relative to control; conditions: read-out: Activity
ACHN = assay: Growth inhibition of human ACHN cells assessed as cell growth at 0.1 uM incubated for 48 hrs by sulforhodamine B assay relative to control; conditions: read-out: Activity
NCI-H23 [5] = assay: Growth inhibition of human NCI-H23 cells assessed as cell growth at 1 uM incubated for 48 hrs by sulforhodamine B assay relative to control; conditions: read-out: Activity
TK-10 [6] = assay: Growth inhibition of human TK-10 cells assessed as cell growth at 1 uM incubated for 48 hrs by sulforhodamine B assay relative to control; conditions: read-out: Activity
PC-3 [7] = assay: Growth inhibition of human PC-3 cells assessed as cell growth at 1 uM incubated for 48 hrs by sulforhodamine B assay relative to control; conditions: read-out: Activity
DU-145 [8] = assay: Growth inhibition of human DU-145 cells assessed as cell growth at 1 uM incubated for 48 hrs by sulforhodamine B assay relative to control; conditions: read-out: Activity
NCI-H522 = assay: Growth inhibition of human NCI-H522 cells assessed as cell growth at 100 uM incubated for 48 hrs by sulforhodamine B assay relative to control; conditions: read-out: Activity
COLO 205 = assay: Growth inhibition of human COLO 205 cells assessed as cell growth at 100 uM incubated for 48 hrs by sulforhodamine B assay relative to control; conditions: read-out: Activity
SF-268 = assay: Growth inhibition of human SF-268 cells assessed as cell growth at 100 uM incubated for 48 hrs by sulforhodamine B assay relative to control; conditions: read-out: Activity
TK-10 [9] = assay: Growth inhibition of human TK-10 cells assessed as cell growth at 100 uM incubated for 48 hrs by sulforhodamine B assay relative to control; conditions: read-out: Activity
PC-3 [10] = assay: Growth inhibition of human PC-3 cells assessed as cell growth at 100 uM incubated for 48 hrs by sulforhodamine B assay relative to control; conditions: read-out: Activity
HCT-116 = assay: Growth inhibition of human HCT-116 cells incubated for 48 hrs by sulforhodamine B assay
M14 = assay: Growth inhibition of human M14 cells incubated for 48 hrs by sulforhodamine B assay
UACC-257 = assay: Growth inhibition of human UACC-257 cells incubated for 48 hrs by sulforhodamine B assay
UACC-62 = assay: Growth inhibition of human UACC-62 cells incubated for 48 hrs by sulforhodamine B assay
NCI/ADR-RES = assay: Growth inhibition of human NCI/ADR-RES cells incubated for 48 hrs by sulforhodamine B assay
DU-145 [11] = assay: Growth inhibition of human DU-145 cells incubated for 48 hrs by sulforhodamine B assay
MCF7 = assay: Growth inhibition of human MCF7 cells incubated for 48 hrs by sulforhodamine B assay
[12] = read-out: LC50 (the source's name)
[13] = read-out: pLC50 (the source's name) (converted)

CC(=O)Nc1cc(CO[Si](C)(C)C(C)(C)C)cc(NC(=O)c2ccc(C(=O)Nc3cccc(NC(=O)CCCN(C)C)c3)cc2)c1
123%: growth at 0.1 µM (SF-295)
> 75.9 µM: GI50 (HCT-116; read-out: pGI50 (converted)) | CC50 (HCT-116; [13]) | TGI (HCT-116; read-out: pTGI) | GI50 (M14; read-out: pGI50 (converted)) | CC50 (M14; [13]) | TGI (M14; read-out: pTGI) | GI50 (UACC-257; read-out: pGI50 (converted)) | LC50 (UACC-257; read-out: pLC50 (converted)) | TGI (UACC-257; read-out: pTGI) | GI50 (UACC-62; read-out: pGI50 (converted)) | CC50 (UACC-62; [13]) | TGI (UACC-62; read-out: pTGI) | GI50 (NCI/ADR-RES; read-out: pGI50 (converted)) | CC50 (NCI/ADR-RES; [13]) | TGI (NCI/ADR-RES; read-out: pTGI) | GI50 (DU-145 [11]; read-out: pGI50 (converted)) | CC50 (DU-145 [11]; [13]) | TGI (DU-145 [11]; read-out: pTGI) | CC50 (MCF7; [13]) | TGI (MCF7; read-out: pTGI)
101%: growth at 0.1 µM (RPMI-8226)
80%: growth at 100 µM (COLO 205)
99%: growth at 0.01 µM (T47D)
29.5 µM: GI50 (MCF7; read-out: pGI50 (converted))
88%: growth at 1 µM (DU-145 [8])
111%: growth at 1 µM (TK-10 [6])
96%: growth at 1 µM (NCI-H23 [5])
102%: growth at 0.01 µM (OVCAR-8) | growth at 0.1 µM (SK-MEL-2)
105%: growth at 1 µM (PC-3 [7])
98%: growth at 0.01 µM (MDA-MB-435) | growth at 0.01 µM (SK-OV-3 [1]) | growth at 0.1 µM (EKVX) | growth at 0.1 µM (HOP-62) | growth at 0.1 µM (NCI-H23 [3]) | growth at 0.1 µM (SK-OV-3 [4]) | growth at 100 µM (TK-10 [9])
103%: growth at 0.1 µM (IGROV-1)
97%: growth at 0.1 µM (HL-60(TB)) | growth at 0.1 µM (ACHN)
86%: growth at 100 µM (NCI-H522)
29.7 µM: GI50 (MCF7; read-out: GI50)
100%: growth at 0.01 µM (OVCAR-3) | growth at 0.01 µM (PC-3 [2])
> 75 µM: GI50 (HCT-116; read-out: GI50) | CC50 (HCT-116; [12]) | TGI (HCT-116; read-out: TGI) | GI50 (M14; read-out: GI50) | CC50 (M14; [12]) | TGI (M14; read-out: TGI) | GI50 (UACC-257; read-out: GI50) | LC50 (UACC-257; read-out: LC50) | TGI (UACC-257; read-out: TGI) | GI50 (UACC-62; read-out: GI50) | CC50 (UACC-62; [12]) | TGI (UACC-62; read-out: TGI) | GI50 (NCI/ADR-RES; read-out: GI50) | CC50 (NCI/ADR-RES; [12]) | TGI (NCI/ADR-RES; read-out: TGI) | GI50 (DU-145 [11]; read-out: GI50) | CC50 (DU-145 [11]; [12]) | TGI (DU-145 [11]; read-out: TGI) | CC50 (MCF7; [12]) | TGI (MCF7; read-out: TGI)
82%: growth at 100 µM (SF-268)
93%: growth at 0.01 µM (K562) | growth at 0.01 µM (HCT-15) | growth at 0.1 µM (786-0) | growth at 100 µM (PC-3 [10])
